Reference: US6355799B1, “Substituted benzene compounds, process for their preparation, and herbicidal and defoliant compositions containing them” (ISK Americas Incorporated, priority 1997, dated 2002)

Assays:
Assay type in all cases: in vivo
[1] = test system: upland rice (Oryza sp., var. Tebonnet, RICE); assay: Pre-emerge test, crop safety; conditions: for Pre-emerge Herbicidal Activity RICE: crop damage, phytotoxicity rating 0-100 at 14 days after application; for Pre-emerge phytotoxicity rating, crop damage RICE: rating scale 0-100, 14 days after application
Method in brief: (§1)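 Compounds in acetone were track-sprayed at 187 l/ha, 15–1000 g ai/ha, onto sandy loam pots. Pre-emerge seeds were sown one day before spraying, with surface watering afterwards. Post-emerge plants were at the 2–3 leaf stage and sprayed with 0.25% v/v non-ionic surfactant. Injury was rated 0–100 at 14 days.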

[2] = test system: field corn (Zea mays L., var. Dekalb 535, CORN); assay: Pre-emerge test, crop safety; conditions: for Pre-emerge Herbicidal Activity CORN: crop damage, phytotoxicity rating 0-100 at 14 days after application; for Pre-emerge phytotoxicity rating, crop damage CORN: rating scale 0-100, 14 days after application
Method in brief: as §1

[3] = test system: redroot pigweed (Amaranthus retroflexus, AMARE); assay: Post-emerge test, greenhouse herbicide activity screening; conditions: post-emerge, phytotoxicity rating 0-100 at 14 days after application
Method in brief: (§2)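 Compounds in acetone were track-sprayed at 15–1000 g ai/ha: pre-emergence onto soil sown the previous day, then top-watered to incorporate and later bottom-watered; post-emergence onto 2–3 leaf plants with 0.25% v/v surfactant, bottom-watered only. Ratings on a 0–100 phytotoxicity scale were taken at day 14.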

[4] = test system: lambsquarters (Chenopodium album, CHEAL); assay: as above; conditions: post-emerge, phytotoxicity rating 0-100 at 14 days after application
Method in brief: as §2

[5] = test system: large crabgrass (Digitaria sanguinalis, DIGSA); assay: as above; conditions: post-emerge, phytotoxicity rating 0-100 at 14 days after application
Method in brief: as §2

[6] = test system: ivyleaf morningglory (Ipomoea hederacea, IPOHE); assay: as above; conditions: post-emerge, phytotoxicity rating 0-100 at 14 days after application
Method in brief: as §2

[7] = test system: sicklepod (Cassia obtusifolia, CASOB); assay: as above; conditions: post-emerge, phytotoxicity rating 0-100 at 14 days after application
Method in brief: as §2

[8] = test system: velvetleaf (Abutilon theophrasti, ABUTH); assay: as above; conditions: post-emerge, phytotoxicity rating 0-100 at 14 days after application
Method in brief: as §2

[9] = test system: green foxtail (Setaria viridis, SETVI); assay: as above; conditions: post-emerge, phytotoxicity rating 0-100 at 14 days after application
Method in brief: as §2

[10] = test system: barnyardgrass (Echinochloa crus-galli, ECHCG); assay: as above; conditions: post-emerge, phytotoxicity rating 0-100 at 14 days after application
Method in brief: as §2

[11] = test system: johnsongrass (Sorghum halepense, SORHA); assay: Pre-emerge test, greenhouse herbicide activity screening; conditions: for Pre-emerge Herbicidal Activity SORHA: phytotoxicity rating 0-100 at 14 days after application; for Pre-emerge herbicidal activity, phytotoxicity rating SORHA: rating scale 0-100, 14 days after application
Method in brief: (§3)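 Herbicidal damage is scored 0 (none) to 100 (complete plant death) two weeks after a simulated field spray. Rates span 15–1000 g ai/ha, delivered in acetone at 187 l/ha. For post-emergence treatments, plants have 2–3 leaves and the spray carries 0.25% v/v non-ionic surfactant.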

[12] = test system: lambsquarters (Chenopodium album, CHEAL); assay: as above; conditions: for Pre-emerge Herbicidal Activity CHEAL: phytotoxicity rating 0-100 at 14 days after application; for Pre-emerge herbicidal activity, phytotoxicity rating CHEAL: rating scale 0-100, 14 days after application
Method in brief: as §3

[13] = test system: large crabgrass (Digitaria sanguinalis, DIGSA); assay: as above; conditions: for Pre-emerge Herbicidal Activity DIGSA: phytotoxicity rating 0-100 at 14 days after application; for Pre-emerge herbicidal activity, phytotoxicity rating DIGSA: rating scale 0-100, 14 days after application
Method in brief: as §3

[14] = test system: ivyleaf morningglory (Ipomoea hederacea, IPOHE); assay: as above; conditions: for Pre-emerge Herbicidal Activity IPOHE: phytotoxicity rating 0-100 at 14 days after application; for Pre-emerge herbicidal activity, phytotoxicity rating IPOHE: rating scale 0-100, 14 days after application
Method in brief: as §3

[15] = test system: sicklepod (Cassia obtusifolia, CASOB); assay: as above; conditions: for Pre-emerge Herbicidal Activity CASOB: phytotoxicity rating 0-100 at 14 days after application; for Pre-emerge herbicidal activity, phytotoxicity rating CASOB: rating scale 0-100, 14 days after application
Method in brief: as §3

[16] = test system: velvetleaf (Abutilon theophrasti, ABUTH); assay: as above; conditions: for Pre-emerge Herbicidal Activity ABUTH: phytotoxicity rating 0-100 at 14 days after application; for Pre-emerge herbicidal activity, phytotoxicity rating ABUTH: rating scale 0-100, 14 days after application
Method in brief: as §3

[17] = test system: green foxtail (Setaria viridis, SETVI); assay: as above; conditions: for Pre-emerge Herbicidal Activity SETVI: phytotoxicity rating 0-100 at 14 days after application; for Pre-emerge herbicidal activity, phytotoxicity rating SETVI: rating scale 0-100, 14 days after application
Method in brief: as §3

[18] = test system: barnyardgrass (Echinochloa crus-galli, ECHCG); assay: as above; conditions: for Pre-emerge Herbicidal Activity ECHCG: phytotoxicity rating 0-100 at 14 days after application; for Pre-emerge herbicidal activity, phytotoxicity rating ECHCG: rating scale 0-100, 14 days after application
Method in brief: as §3

[19] = test system: upland rice (Oryza sp., var. Tebonnet, RICE); assay: Post-emerge test, crop safety; conditions: post-emerge, crop damage rating 0-100 at 14 days after application
Method in brief: as §3

[20] = test system: field corn (Zea mays L., var. Dekalb 535, CORN); assay: Post-emerge test, crop safety; conditions: post-emerge, crop damage rating 0-100 at 14 days after application
Method in brief: as §3

[21] = test system: redroot pigweed (Amaranthus retroflexus, AMARE); assay: Pre-emerge test, greenhouse herbicide activity screening; conditions: for Pre-emerge Herbicidal Activity AMARE: phytotoxicity rating 0-100 at 14 days after application; for Pre-emerge herbicidal activity, phytotoxicity rating AMARE: rating scale 0-100, 14 days after application
Method in brief: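 Visual ratings on a 0-100 scale (0 no damage, 100 all plants dead) were taken at 14 days after treatment. Rates of 15-1000 g ai/ha in acetone, 187 l/ha, were sprayed onto soil one day after planting (pre-emerge) or onto 2-3 leaf plants with 0.25% v/v surfactant (post-emerge).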

O=C(Nc1cc(Cl)ccc1-n1c(=O)n2n(c1=S)CCCC2)c1ccc2ccccc2c1 [9-14]
Pre-emerge Herbicidal Activity RICE ([1]; rate 63 g ai/ha): 0
Pre-emerge Herbicidal Activity RICE ([1]; rate 250 g ai/ha): 10
Pre-emerge Herbicidal Activity CORN ([2]; rate 63 g ai/ha): 0
Pre-emerge Herbicidal Activity CORN ([2]; rate 250 g ai/ha): 0
Post-emerge Herbicidal Activity AMARE ([3]; 63 g ai/ha): 85
Post-emerge Herbicidal Activity AMARE ([3]; 250 g ai/ha): 100
Post-emerge Herbicidal Activity CHEAL ([4]; 63 g ai/ha): 95
Post-emerge Herbicidal Activity CHEAL ([4]; 250 g ai/ha): 100
Post-emerge Herbicidal Activity DIGSA ([5]; 63 g ai/ha): 0
Post-emerge Herbicidal Activity DIGSA ([5]; 250 g ai/ha): 10
Post-emerge Herbicidal Activity IPOHE ([6]; 63 g ai/ha): 80
Post-emerge Herbicidal Activity IPOHE ([6]; 250 g ai/ha): 90
Post-emerge Herbicidal Activity CASOB ([7]; 63 g ai/ha): 40
Post-emerge Herbicidal Activity CASOB ([7]; 250 g ai/ha): 40
Post-emerge Herbicidal Activity ABUTH ([8]; 63 g ai/ha): 100
Post-emerge Herbicidal Activity ABUTH ([8]; 250 g ai/ha): 100
Post-emerge Herbicidal Activity SETVI ([9]; 63 g ai/ha): 10
Post-emerge Herbicidal Activity SETVI ([9]; 250 g ai/ha): 20
Post-emerge Herbicidal Activity ECHCG ([10]; 63 g ai/ha): 0
Post-emerge Herbicidal Activity ECHCG ([10]; 250 g ai/ha): 10
Pre-emerge Herbicidal Activity SORHA ([11]; rate 63 g ai/ha): 0
Pre-emerge Herbicidal Activity SORHA ([11]; rate 250 g ai/ha): 10
Pre-emerge Herbicidal Activity CHEAL ([12]; rate 63 g ai/ha): 80
Pre-emerge Herbicidal Activity CHEAL ([12]; rate 250 g ai/ha): 100
Pre-emerge Herbicidal Activity DIGSA ([13]; rate 63 g ai/ha): 0
Pre-emerge Herbicidal Activity DIGSA ([13]; rate 250 g ai/ha): 30
Pre-emerge Herbicidal Activity IPOHE ([14]; rate 63 g ai/ha): 0
Pre-emerge Herbicidal Activity IPOHE ([14]; rate 250 g ai/ha): 10
Pre-emerge Herbicidal Activity CASOB ([15]; rate 63 g ai/ha): 0
Pre-emerge Herbicidal Activity CASOB ([15]; rate 250 g ai/ha): 0
Pre-emerge Herbicidal Activity ABUTH ([16]; rate 63 g ai/ha): 20
Pre-emerge Herbicidal Activity ABUTH ([16]; rate 250 g ai/ha): 85
Pre-emerge Herbicidal Activity SETVI ([17]; rate 63 g ai/ha): 0
Pre-emerge Herbicidal Activity SETVI ([17]; rate 250 g ai/ha): 30
Pre-emerge Herbicidal Activity ECHCG ([18]; rate 63 g ai/ha): 0
Pre-emerge Herbicidal Activity ECHCG ([18]; rate 250 g ai/ha): 40
Post-emerge Herbicidal Activity RICE ([19]; 63 g ai/ha): 0
Post-emerge Herbicidal Activity RICE ([19]; 250 g ai/ha): 40
Post-emerge Herbicidal Activity CORN ([20]; 63 g ai/ha): 15
Post-emerge Herbicidal Activity CORN ([20]; 250 g ai/ha): 50
Pre-emerge Herbicidal Activity AMARE ([21]; rate 63 g ai/ha): 40
Pre-emerge Herbicidal Activity AMARE ([21]; rate 250 g ai/ha): 65

COc1c(Cl)cc(F)c(N2C(=O)c3ccccc3C2=O)c1NC(=O)c1ccc(F)cc1F [13-4]
Pre-emerge phytotoxicity rating, crop damage RICE ([1]; 63 g ai/ha): 0
Pre-emerge phytotoxicity rating, crop damage RICE ([1]; 250 g ai/ha): 30
Pre-emerge phytotoxicity rating, crop damage CORN ([2]; 63 g ai/ha): 0
Pre-emerge phytotoxicity rating, crop damage CORN ([2]; 250 g ai/ha): 15
Post-emerge Herbicidal Activity AMARE ([3]; 63 g ai/ha): 100
Post-emerge Herbicidal Activity AMARE ([3]; 250 g ai/ha): 95
Post-emerge Herbicidal Activity CHEAL ([4]; 63 g ai/ha): 95
Post-emerge Herbicidal Activity CHEAL ([4]; 250 g ai/ha): 100
Post-emerge Herbicidal Activity DIGSA ([5]; 63 g ai/ha): 0
Post-emerge Herbicidal Activity DIGSA ([5]; 250 g ai/ha): 10
Post-emerge Herbicidal Activity IPOHE ([6]; 63 g ai/ha): 85
Post-emerge Herbicidal Activity IPOHE ([6]; 250 g ai/ha): 85
Post-emerge Herbicidal Activity CASOB ([7]; 63 g ai/ha): 95
Post-emerge Herbicidal Activity CASOB ([7]; 250 g ai/ha): 100
Post-emerge Herbicidal Activity ABUTH ([8]; 63 g ai/ha): 100
Post-emerge Herbicidal Activity ABUTH ([8]; 250 g ai/ha): 100
Post-emerge Herbicidal Activity SETVI ([9]; 63 g ai/ha): 20
Post-emerge Herbicidal Activity SETVI ([9]; 250 g ai/ha): 40
Post-emerge Herbicidal Activity ECHCG ([10]; 63 g ai/ha): 10
Post-emerge Herbicidal Activity ECHCG ([10]; 250 g ai/ha): 30
Pre-emerge herbicidal activity, phytotoxicity rating SORHA ([11]; 63 g ai/ha): 10
Pre-emerge herbicidal activity, phytotoxicity rating SORHA ([11]; 250 g ai/ha): 40
Pre-emerge herbicidal activity, phytotoxicity rating CHEAL ([12]; 63 g ai/ha): 100
Pre-emerge herbicidal activity, phytotoxicity rating CHEAL ([12]; 250 g ai/ha): 100
Pre-emerge herbicidal activity, phytotoxicity rating DIGSA ([13]; 63 g ai/ha): 0
Pre-emerge herbicidal activity, phytotoxicity rating DIGSA ([13]; 250 g ai/ha): 90
Pre-emerge herbicidal activity, phytotoxicity rating IPOHE ([14]; 63 g ai/ha): 10
Pre-emerge herbicidal activity, phytotoxicity rating IPOHE ([14]; 250 g ai/ha): 90
Pre-emerge herbicidal activity, phytotoxicity rating CASOB ([15]; 63 g ai/ha): 0
Pre-emerge herbicidal activity, phytotoxicity rating CASOB ([15]; 250 g ai/ha): 50
Pre-emerge herbicidal activity, phytotoxicity rating ABUTH ([16]; 63 g ai/ha): 90
Pre-emerge herbicidal activity, phytotoxicity rating ABUTH ([16]; 250 g ai/ha): 100
Pre-emerge herbicidal activity, phytotoxicity rating SETVI ([17]; 63 g ai/ha): 30
Pre-emerge herbicidal activity, phytotoxicity rating SETVI ([17]; 250 g ai/ha): 90
Pre-emerge herbicidal activity, phytotoxicity rating ECHCG ([18]; 63 g ai/ha): 0
Pre-emerge herbicidal activity, phytotoxicity rating ECHCG ([18]; 250 g ai/ha): 30
Post-emerge Herbicidal Activity RICE ([19]; 63 g ai/ha): 30
Post-emerge Herbicidal Activity RICE ([19]; 250 g ai/ha): 50
Post-emerge Herbicidal Activity CORN ([20]; 63 g ai/ha): 5
Post-emerge Herbicidal Activity CORN ([20]; 250 g ai/ha): 5
Pre-emerge herbicidal activity, phytotoxicity rating AMARE ([21]; 63 g ai/ha): 60
Pre-emerge herbicidal activity, phytotoxicity rating AMARE ([21]; 250 g ai/ha): 100
